Assay results: PubChem BioAssay (NCI)
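Step 1: Grow cells in 96-well plates. Step 2: Expose to compound for 48 hours at 5 concentrations. Step 3: Interpolate endpoints linearly; if unreached, use highest concentration. At the GI50, growth is halved. TGI: total growth inhibition.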

Columns and labels:
Assay in all cases: DTP human tumour cell line panel, 48 h
NCI-H522 lung = tested on: NCI-H522 lung
SF-295 CNS = tested on: SF-295 CNS
IGROV1 ovarian = tested on: IGROV1 ovarian
A498 renal = tested on: A498 renal
SK-MEL-2 melanoma = tested on: SK-MEL-2 melanoma
OVCAR-4 ovarian = tested on: OVCAR-4 ovarian
MALME-3M melanoma = tested on: MALME-3M melanoma
OVCAR-3 ovarian = tested on: OVCAR-3 ovarian
UO-31 renal = tested on: UO-31 renal
SK-MEL-5 melanoma = tested on: SK-MEL-5 melanoma
HCC-2998 colon = tested on: HCC-2998 colon
HOP-92 NSCLC = tested on: HOP-92 NSCLC
SF-268 CNS = tested on: SF-268 CNS
U251 CNS = tested on: U251 CNS
NCI-H23 lung = tested on: NCI-H23 lung
CCRF-CEM leukemia = tested on: CCRF-CEM leukemia
KM12 colon = tested on: KM12 colon
HT29 colon = tested on: HT29 colon
CAKI-1 renal = tested on: CAKI-1 renal
ACHN renal = tested on: ACHN renal
DU-145 prostate = tested on: DU-145 prostate
A549 NSCLC = tested on: A549 NSCLC
M14 melanoma = tested on: M14 melanoma
MOLT-4 leukemia = tested on: MOLT-4 leukemia
COLO 205 colon = tested on: COLO 205 colon
SN12C renal = tested on: SN12C renal
HS 578T breast = tested on: HS 578T breast
MDA-MB-231 breast = tested on: MDA-MB-231 breast
BT-549 breast = tested on: BT-549 breast
MDA-MB-435 = tested on: MDA-MB-435
SW-620 colon = tested on: SW-620 colon
MCF7 breast = tested on: MCF7 breast
TK-10 renal = tested on: TK-10 renal
UACC-257 melanoma = tested on: UACC-257 melanoma
LOX IMVI melanoma = tested on: LOX IMVI melanoma
SK-OV-3 ovarian = tested on: SK-OV-3 ovarian
NCI-H460 lung = tested on: NCI-H460 lung
T-47D breast = tested on: T-47D breast
NCI-H226 lung = tested on: NCI-H226 lung
OVCAR-5 ovarian = tested on: OVCAR-5 ovarian
HCT-116 colon = tested on: HCT-116 colon
OVCAR-8 ovarian = tested on: OVCAR-8 ovarian
K-562 leukemia = tested on: K-562 leukemia
SF-539 CNS = tested on: SF-539 CNS
EKVX NSCLC = tested on: EKVX NSCLC
RPMI-8226 leukemia = tested on: RPMI-8226 leukemia
RXF 393 renal = tested on: RXF 393 renal
SNB-75 CNS = tested on: SNB-75 CNS
UACC-62 melanoma = tested on: UACC-62 melanoma
SK-MEL-28 melanoma = tested on: SK-MEL-28 melanoma
HOP-62 NSCLC = tested on: HOP-62 NSCLC
786-0 renal = tested on: 786-0 renal
PC-3 prostate = tested on: PC-3 prostate
HCT-15 colon = tested on: HCT-15 colon
SNB-19 CNS = tested on: SNB-19 CNS

Work on `CC1SC(c2ccc(Cl)c(Cl)c2)N(NC(=O)C(O)c2ccccc2)C1=O` (stereo not given) yielded a GI50 (NCI-H522 lung) of 28.4 µM, a TGI (NCI-H522 lung) of 98.5 µM and a GI50 (SF-295 CNS) of 24.5 µM. The TGI (SF-295 CNS) was 67.5 µM, the GI50 (IGROV1 ovarian) was 28.5 µM and the TGI (IGROV1 ovarian) was 74.6 µM. For the same molecule, the GI50 (A498 renal) was 77.1 µM, the TGI (A498 renal) was greater than 100 µM and the GI50 (SK-MEL-2 melanoma) was 45.4 µM. It also gave a TGI (SK-MEL-2 melanoma) greater than 100 µM, a GI50 (OVCAR-4 ovarian) of 32.6 µM and a TGI (OVCAR-4 ovarian) of 91.2 µM. The GI50 (MALME-3M melanoma) was 46.2 µM, the TGI (MALME-3M melanoma) was greater than 100 µM and the GI50 (OVCAR-3 ovarian) was 25.9 µM. For the same molecule, the TGI (OVCAR-3 ovarian) was 77.6 µM, the GI50 (UO-31 renal) was 36.6 µM and the TGI (UO-31 renal) was greater than 100 µM. It also gave a GI50 (SK-MEL-5 melanoma) of 38.1 µM, a TGI (SK-MEL-5 melanoma) greater than 100 µM and a GI50 (HCC-2998 colon) of 36.9 µM. It also gave a TGI (HCC-2998 colon) greater than 100 µM, a GI50 (HOP-92 NSCLC) of 40.8 µM and a TGI (HOP-92 NSCLC) greater than 100 µM. For the same molecule, the GI50 (SF-268 CNS) was 55.7 µM, the TGI (SF-268 CNS) was greater than 100 µM and the GI50 (U251 CNS) was 41 µM. For the same molecule, the TGI (U251 CNS) was greater than 100 µM, the GI50 (NCI-H23 lung) was 33.3 µM and the TGI (NCI-H23 lung) was greater than 100 µM. The GI50 (CCRF-CEM leukemia) was 55.1 µM, the TGI (CCRF-CEM leukemia) was greater than 100 µM and the GI50 (KM12 colon) was 42.6 µM. The TGI (KM12 colon) was greater than 100 µM, the GI50 (HT29 colon) was 32.3 µM and the TGI (HT29 colon) was greater than 100 µM. For the same molecule, the GI50 (CAKI-1 renal) was 30.7 µM, the TGI (CAKI-1 renal) was greater than 100 µM and the GI50 (ACHN renal) was 33.3 µM. The TGI (ACHN renal) was greater than 100 µM, the GI50 (DU-145 prostate) was 59.2 µM and the TGI (DU-145 prostate) was greater than 100 µM. It also gave a GI50 (A549 NSCLC) of 29.6 µM, a TGI (A549 NSCLC) of 85.4 µM and a GI50 (M14 melanoma) of 42.5 µM. It also gave a TGI (M14 melanoma) greater than 100 µM, a GI50 (MOLT-4 leukemia) of 26.6 µM and a TGI (MOLT-4 leukemia) of 82.2 µM. It also gave a GI50 (COLO 205 colon) of 44.7 µM, a TGI (COLO 205 colon) greater than 100 µM and a GI50 (SN12C renal) of 44.1 µM. The TGI (SN12C renal) was greater than 100 µM, the GI50 (HS 578T breast) was 51.1 µM and the TGI (HS 578T breast) was greater than 100 µM. The GI50 (MDA-MB-231 breast) was 31.3 µM, the TGI (MDA-MB-231 breast) was greater than 100 µM and the GI50 (BT-549 breast) was 45 µM. For the same molecule, the TGI (BT-549 breast) was greater than 100 µM, the GI50 (MDA-MB-435) was 41.8 µM and the TGI (MDA-MB-435) was greater than 100 µM. The GI50 (SW-620 colon) was 77.2 µM, the TGI (SW-620 colon) was greater than 100 µM and the GI50 (MCF7 breast) was 47.1 µM. The TGI (MCF7 breast) was greater than 100 µM, the GI50 (TK-10 renal) was 41.3 µM and the TGI (TK-10 renal) was greater than 100 µM. The GI50 (UACC-257 melanoma) was 35.1 µM, the TGI (UACC-257 melanoma) was greater than 100 µM and the GI50 (LOX IMVI melanoma) was 55.2 µM. It also gave a TGI (LOX IMVI melanoma) greater than 100 µM, a GI50 (SK-OV-3 ovarian) greater than 100 µM and a TGI (SK-OV-3 ovarian) greater than 100 µM. For the same molecule, the GI50 (NCI-H460 lung) was 33.5 µM, the TGI (NCI-H460 lung) was greater than 100 µM and the GI50 (T-47D breast) was 67.5 µM. The TGI (T-47D breast) was greater than 100 µM, the GI50 (NCI-H226 lung) was 33.6 µM and the TGI (NCI-H226 lung) was greater than 100 µM. It also gave a GI50 (OVCAR-5 ovarian) of 70.1 µM, a TGI (OVCAR-5 ovarian) greater than 100 µM and a GI50 (HCT-116 colon) of 43.2 µM. The TGI (HCT-116 colon) was greater than 100 µM, the GI50 (OVCAR-8 ovarian) was 34.1 µM and the TGI (OVCAR-8 ovarian) was greater than 100 µM. For the same molecule, the GI50 (K-562 leukemia) was 57.1 µM, the TGI (K-562 leukemia) was greater than 100 µM and the GI50 (SF-539 CNS) was 72.6 µM. The TGI (SF-539 CNS) was greater than 100 µM, the GI50 (EKVX NSCLC) was 43.7 µM and the TGI (EKVX NSCLC) was greater than 100 µM. It also gave a GI50 (RPMI-8226 leukemia) of 25 µM, a TGI (RPMI-8226 leukemia) of 66 µM and a GI50 (RXF 393 renal) of 30.3 µM. For the same molecule, the TGI (RXF 393 renal) was 83.2 µM, the GI50 (SNB-75 CNS) was 24.8 µM and the TGI (SNB-75 CNS) was 90.1 µM. It also gave a GI50 (UACC-62 melanoma) of 25.2 µM, a TGI (UACC-62 melanoma) of 86.1 µM and a GI50 (SK-MEL-28 melanoma) of 38.5 µM. The TGI (SK-MEL-28 melanoma) was greater than 100 µM, the GI50 (HOP-62 NSCLC) was 85.1 µM and the TGI (HOP-62 NSCLC) was greater than 100 µM. It also gave a GI50 (786-0 renal) of 79.6 µM, a TGI (786-0 renal) greater than 100 µM and a GI50 (PC-3 prostate) of 35 µM. The TGI (PC-3 prostate) was greater than 100 µM, the GI50 (HCT-15 colon) was 45.5 µM and the TGI (HCT-15 colon) was greater than 100 µM. For the same molecule, the GI50 (SNB-19 CNS) was 93.2 µM and the TGI (SNB-19 CNS) was greater than 100 µM.
